Measured values reported in patent EP1401829B1, “NOVEL HETEROCYCLIC ANTIBACTERIAL COMPOUNDS” (Microbiotix, Inc., priority 2001, dated 2002).
Converted amounts (≈) assume the structure as drawn. Read-outs that look alike come from different tables or passages of the source. Marks after values point to notes of the source that are not given here.

How the values were obtained:
E. coli = assay: Minimal Inhibitory Concentration (MIC) determination, 96 well plates; type: cell-based, Escherichia coli; details: Escherichia coli; HBI medium, 16 to 18 hours at 37°C; read-out: MIC (µg/ml) E. coli
In short: (§1)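 Cultures seeded at approximately 1x10^5 CFU/ml in Heart-Brain Infusion medium were exposed to five compound concentrations, five data points each, for 16 to 18 hours at 37°C. Growth at OD 600 nm was expressed as percent of control, and MIC values are given in µg/ml.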

E. fecium = assay: as above; type: cell-based, Enterococcus fecium; details: Enterococcus; HBI medium, 16 to 18 hours at 37°C; read-out: MIC (µg/ml) E. fecium
In short: (§2)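 Broth growth in Heart-Brain Infusion medium, seeded at about 1x10^5 CFU/ml, 16 to 18 hours at 37°C. Growth read at OD 600 nm as percent of untreated control; five concentrations per drug, five data points each, MIC reported in µg/ml.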

E. fecalis = assay: as above; type: cell-based, Enterococcus fecalis; details: Enterococcus; HBI medium, 16 to 18 hours at 37°C; read-out: MIC (µg/ml) E. fecalis
In short: as §2

S.aureus (Smith) = assay: as above; type: cell-based, Staphylococcus aureus; details: Staphylococcus aureus
In short: as §2

S. aureus = assay: as above; type: cell-based, Staphylococcus aureus; details: Staphylococcus aureus, read-out: MIC (µg/ml) S. aureus
In short: as §1

MRSA1094 = assay: MIC against clinically relevant strains; type: cell-based; details: Staphylococcus aureus; methicillin resistant S. aureus strain
Protocol: (§3) The following methods were used to characterize representative compounds. Minimal Inhibitory Concentration (MIC) determinations. MIC values were determined in 96 well plates, with bacterial growth monitored at OD 600 nm in 200µl following an initial bacterial seeding at approximately 1x10^5 colony forming units (CFU)/ml. Each drug is evaluated at five concentrations, with five data points at each dilution. MIC values (µg/ml) were determined against actively growing cultures in Heart-Brain Infusion (HBI) medium. Cell growth in cultures supplemented with a test compound was calculated as a percent of control at OD 600 nm after 16 to 18 hours at 37°C. This plate format conserves test compound and provides precise, quantitative data with low standard deviation determinations. Polymerase IIIC (Pol IIIC) assay. DNA polymerase activity (or inhibition thereof) was measured in a 96-well plate format. B. subtilis Pol IIIC was isolated as described by Hammond and Brown (Protein Expr. Purif., 3: 65-70 (1992)). Each 25 µl assay contained 30 mM Tris, pH 7.5, 10 mM magnesium acetate, 4 mM dithiothreitol, 20% glycerol, with 25 µM dATP, dCTP, dGTP and 10 µM dTTP (^3H-labelled at 1.44 Ci/mmole) and 0.4 mg/ml activated calf thymus DNA as substrates, as described previously (see Barnes et al, op. cit). Assays were initiated by the addition of 0.025 to 0.06 units of enzyme 1 unit is the amount required to incorporate 250 pmoles of [^3H] dTMP in a standard assay), incubated for 10 minutes at 30°C and terminated by the addition of 200 µl of cold 10% trichloroacetic acid (TCA),10 mM sodium pyrophosphate. Precipitated labeled DNA was collected on glass fiber filter plates, washed, dried, and counted in a liquid scintillation counter. Determination of Ki values. DNA polymerase activity was measured in a 96-well plate format in the absence of dGTP or dATP, depending on the structure of the test compound. Each 25 µl assay contained 30 mM Tris, pH 7.5, 10 mM magnesium acetate, 4 mM dithiothreitol, 20% glycerol, with 25 µM dATP, dCTP, and 10 µM dTTP (^3H-labelled at 1.44 Ci/mmole) and 0.4 mg/ml activated calf thymus DNA as substrates, as described previously. To each well were added 2 µl of compound solution to give final concentrations ranging from 20 - 0.027 µg/ml in the assay. Assays were initiated by the addition of 0.025 to 0.06 units of enzyme (1 unit is the amount required to incorporate 250 pmoles of [^3H] dTMP in a standard assay), incubated for 10 minutes at 30 °C and terminated by the addition of 200 µl of cold 10% trichloroacetic acid, 10 mM sodium pyrophosphate. Precipitated labeled DNA was collected on glass fiber filter plates, washed, dried, and counted in a liquid scintillation counter. Ki is the concentration of test compound that reduces the control polymerase IIIC activity by 50 percent.
(§4) Compounds were also tested for antibacterial activity against certain clinically relevant strains, e.g., methicillin sensitive (MSSA) and methicillin resistant (MRSA) strains of Staphylococcus aureus.

MRSA 1123 = assay: MIC against clinically relevant strains; type: cell-based; details: Staphylococcus aureus, methicillin resistant S. aureus strain
Protocol: as §3, §4

MSSA108 = assay: MIC against clinically relevant strains; type: cell-based; details: Staphylococcus aureus; methicillin sensitive S. aureus strain
Protocol: as §3, §4

MRSA1132 = assay: MIC against clinically relevant strains; type: cell-based; details: Staphylococcus aureus; methicillin resistant S. aureus strain
Protocol: as §3, §4

B. subtilis Pol IIIC = target: T1, B. subtilis Pol IIIC (Bacillus subtilis, UniProt P13267); assay: Polymerase IIIC (Pol IIIC) assay, determination of Ki values; type: biochemical; details: Ki (µM) Pol IIIC, assay in absence of dGTP or dATP; Ki is the concentration that reduces control polymerase IIIC activity by 50 percent
T1 construct: made in house
T1 sequence (P13267 whole entry): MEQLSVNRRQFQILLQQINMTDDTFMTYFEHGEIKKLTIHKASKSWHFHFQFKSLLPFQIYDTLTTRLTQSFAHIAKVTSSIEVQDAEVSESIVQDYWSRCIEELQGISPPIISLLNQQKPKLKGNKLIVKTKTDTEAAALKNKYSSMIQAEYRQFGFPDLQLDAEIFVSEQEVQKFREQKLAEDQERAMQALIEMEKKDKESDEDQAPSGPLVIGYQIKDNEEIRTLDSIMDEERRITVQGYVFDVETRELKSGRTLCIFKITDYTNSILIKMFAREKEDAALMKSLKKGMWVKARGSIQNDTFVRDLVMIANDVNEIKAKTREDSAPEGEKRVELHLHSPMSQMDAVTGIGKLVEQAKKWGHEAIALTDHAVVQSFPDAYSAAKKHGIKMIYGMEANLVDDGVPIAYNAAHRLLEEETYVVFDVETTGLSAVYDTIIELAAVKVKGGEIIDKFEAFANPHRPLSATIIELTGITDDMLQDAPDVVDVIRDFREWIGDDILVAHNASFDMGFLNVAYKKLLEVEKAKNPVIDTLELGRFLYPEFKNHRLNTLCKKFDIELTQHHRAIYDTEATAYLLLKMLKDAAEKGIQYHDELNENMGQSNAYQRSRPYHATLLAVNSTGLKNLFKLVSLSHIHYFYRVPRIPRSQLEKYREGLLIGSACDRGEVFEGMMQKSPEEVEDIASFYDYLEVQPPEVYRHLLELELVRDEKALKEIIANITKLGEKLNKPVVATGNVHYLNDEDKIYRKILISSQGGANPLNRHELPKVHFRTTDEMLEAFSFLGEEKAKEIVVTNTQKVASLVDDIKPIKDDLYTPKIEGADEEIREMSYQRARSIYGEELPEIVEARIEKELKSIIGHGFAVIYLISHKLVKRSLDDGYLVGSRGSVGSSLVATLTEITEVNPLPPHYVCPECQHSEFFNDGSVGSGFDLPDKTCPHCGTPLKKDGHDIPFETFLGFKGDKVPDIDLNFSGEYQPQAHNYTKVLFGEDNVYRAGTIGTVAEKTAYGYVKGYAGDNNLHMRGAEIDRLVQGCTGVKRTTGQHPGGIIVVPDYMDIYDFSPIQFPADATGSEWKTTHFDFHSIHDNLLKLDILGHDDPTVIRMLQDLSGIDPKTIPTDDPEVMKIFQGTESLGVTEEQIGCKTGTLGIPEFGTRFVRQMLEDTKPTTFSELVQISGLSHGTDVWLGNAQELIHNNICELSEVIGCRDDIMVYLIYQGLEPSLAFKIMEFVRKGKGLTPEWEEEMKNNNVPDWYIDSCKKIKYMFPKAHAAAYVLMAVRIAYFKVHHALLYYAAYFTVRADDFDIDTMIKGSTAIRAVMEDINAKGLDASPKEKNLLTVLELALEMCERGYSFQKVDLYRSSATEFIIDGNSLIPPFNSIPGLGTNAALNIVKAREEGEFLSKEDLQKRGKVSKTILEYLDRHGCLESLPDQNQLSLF
In short: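 Isolated B. subtilis Pol IIIC (0.025–0.06 units) run 10 min at 30°C in 30 mM Tris pH 7.5, 10 mM Mg acetate, 4 mM DTT, 20% glycerol. Substrates were 0.4 mg/ml activated calf thymus DNA, 25 µM dNTPs and 10 µM [3H]dTTP, with dGTP or dATP omitted per compound structure.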

B. subtilis = assay: Minimal Inhibitory Concentration (MIC) determination, 96 well plates; type: cell-based, Bacillus subtilis; details: Bacillus subtilis; HBI medium, 16 to 18 hours at 37°C; read-out: MIC (µg/ml) B. subtilis
In short: as §2

MRSA 1094 = assay: In vivo efficacy of Compound 70 in mouse models; set-up: species or system Staphylococcus aureus; details: mice, 10^7 CFU/mouse + 5% Mucin; positive control, 30mg/kg, t=0
Protocol: (§5) Swiss Webster mice, ca. 20 g each, were infected with Staphylococcus aureus (Smith strain) by the intraperitoneal route. Test compounds (2, 4, 5, 6, 7, 8, 10, 12) were dissolved in 10% dimethylsulfoxide in peanut oil to a concentration of 2 mg/ml. Vancomycin was used as positive control drug (i.e., protection from lethal infection). Fifteen minutes after infection, test compounds, vancomycin, or vehicle alone were given intraperitoneally to groups of five mice each. Animals were monitored for three days, and the number of mice surviving was tabulated for each treatment.
(§6) Using the same basic procedure as described above, the in vivo efficacy of Compound 70 was also evaluated at various doses in mice infected with S. aureaus (Smith), MRSA 1094, Enterococcus faecalis, or vancomycin-resistant Enterococcus faecalis strain VRE 700802. […] Negative controls were mice infected that received no treatment. Mucin was employed as an adjuvant to facilitate bacterial infection in mice, where indicated.

[1] = test system: Staphylococcus aureus (Smith); assay: In vivo efficacy of Compound 70 in mouse models; details: mice, 10^8 CFU/mouse; positive control, 30mg/kg, t=0
Protocol: as §5, §6

[2] = test system: Enterococcus faecalis (ATCC 29212); assay: In vivo efficacy of Compound 70 in mouse models; details: mice, 3x10^7 CFU/mouse + 5% Mucin; positive control, 100mg/kg, t=0
Protocol: as §5, §6

[3] = HBI medium, 16 to 18 hours at 37°C, read-out: MIC (µg/ml) S.aureus (Smith)
[4] = table of MSSA/MRSA strains, read-out: MIC (µg/ml) S. aureus (Smith)
[5] = HBI medium, 16 to 18 hours at 37°C

Compound	MIC (E. coli) [µg/mL]	MIC (E. fecium) [µg/mL]	MIC (E. fecalis) [µg/mL]	MIC (S.aureus (Smith); [3]) [µg/mL]	MIC (S.aureus (Smith); [4]) [µg/mL]	MIC (S. aureus; [5]) [µg/mL]	MIC (S. aureus; table of MSSA/MRSA strains) [µg/mL]	MIC (MRSA1094) [µg/mL]	MIC (MRSA 1123) [µg/mL]	MIC (MSSA108) [µg/mL]	MIC (MRSA1132) [µg/mL]	Ki (B. subtilis Pol IIIC) [µM]	MIC (B. subtilis) [µg/mL]	% Survival at 72 hours (MRSA 1094)	% Survival at 72 hours [1]	% Survival at 72 hours [2]
CCc1cc(Nc2cc(=O)n(CCCCN3CCN(c4cc5c(cc4F)c(=O)c(C(=O)O)cn5-c4ccc(F)cc4F)CC3)c(=O)[nH]2)ccc1C [Compound 12, 3-{4-[1-(1-{2,4-difluorophenyl}-3-carboxy-4-oxo-6-fluoro-7-quinolyl)-4-piperazinyl]butyl}-6-(3-ethyl-4-methylanilino)uracil]	2.5 (≈ 3.56 µM)	5 (≈ 7.12 µM)	2.5 (≈ 3.56 µM)	0.313 (≈ 0.445 µM)	0.313 (≈ 0.445 µM)	0.313 (≈ 0.445 µM)	0.313 (≈ 0.445 µM)	0.625 (≈ 0.889 µM)	1.25 (≈ 1.78 µM)	0.625 (≈ 0.889 µM)	0.625 (≈ 0.889 µM)	0.018	0.156 (≈ 0.222 µM)	–	–	–
CCc1cc(Nc2cc(=O)n(CCCCN3CCN(c4c(F)cc5c(=O)c(C(=O)O)cn(CC)c5c4F)CC3)c(=O)[nH]2)ccc1C [Compound 7, 3-{4-[1-(1-ethyl-3-carboxy-4-oxo-6,8-difluoro-7-quinolyl)-4-piperazinyl]butyl}-6-(3-ethyl-4-methylanilino)uracil]	> 20	1.25 (≈ 1.96 µM)	1.25 (≈ 1.96 µM)	1.25 (≈ 1.96 µM)	0.625 (≈ 0.982 µM)	0.625 (≈ 0.982 µM)	0.625 (≈ 0.982 µM)	0.625 (≈ 0.982 µM)	0.625 (≈ 0.982 µM)	0.313 (≈ 0.492 µM)	0.625 (≈ 0.982 µM)	0.021	0.156 (≈ 0.245 µM)	–	–	–
CN[C@H](CC(C)C)C(=O)N[C@H]1C(=O)N[C@@H](CC(N)=O)C(=O)N[C@H]2C(=O)N[C@H]3C(=O)N[C@H](C(=O)N[C@H](C(=O)O)c4cc(O)cc(O)c4-c4cc3ccc4O)[C@H](O)c3ccc(c(Cl)c3)Oc3cc2cc(c3O[C@@H]2O[C@H](CO)[C@@H](O)[C@H](O)[C@H]2O[C@H]2C[C@](C)(N)[C@H](O)[C@H](C)O2)Oc2ccc(cc2Cl)[C@H]1O [vancomycin, reference compound]	–	–	–	–	–	–	–	–	–	–	–	–	–	95% (19/20)**	100% (20/20)**	vancomycin (100mg/kg, t=0) 100% (10/10)**
